The text below walks through data of patent publication US9211262B2, “Injectable pharmaceutical compositions of an anthracenedione derivative with anti-tumoral activity” (CTI BioPharma Corp., priority 2002, dated 2015).

A short description of data set [1]: Stability in solution in common solvents for parenteral administration. In kind it is physicochemical. The following applies: injectable liquid compositions.
Data set [2] concerns ascitic L1210 leukaemia. The following applies: wide range of doses; cited from earlier work.
The conditions of data set [3]: in vivo; cited from earlier work.
The nature of data set [4]: Solubility in water and sodium chloride solutions. In kind it is physicochemical. The source says:
However, the presence of sodium chloride requires the use of long lyophilisation cycles due to the low glass transition temperature observed.

Data set [5] deals with YC-8 lymphoma. The following applies: wide range of doses; cited from earlier work.

In the case of `NCCNc1ccc(NCCN)c2c1C(=O)c1ccncc1C2=O.O=C(O)/C=C\C(=O)O.O=C(O)/C=C\C(=O)O` [BBR 2778, 6,9-bis[(2-aminoethyl)amino]benzo[g]isoquinoline-5,10-dione dimaleate], in data set [1], the stability in solution entry is reported as “problematic”. The “activity compared with mitoxantrone” value in data set [2] and in data set [5] was “more active than mitoxantrone” each time. Besides, the cardiotoxicity entry in data set [3] is “lower than that of other known drugs belonging to the same class”. Besides, in data set [4] (sodium chloride solutions 0.9 to 4%), the “solubility in sodium chloride solutions” value is “progressively more soluble”. The solubility in water entry in data set [4] (water) was “low solubility”.
